Assay results as given in patent US20120225061A1, “TETRASUBSTITUTED CYCLOHEXYL COMPOUNDS AS KINASE INHIBITORS” (priority 2011, published 2012).

Columns and labels:
Pim1 kinase = Pim1 kinase (Homo sapiens, UniProt P11309); experiment: KinaseGlo Pim1 ATP depletion assay; format: biochemical; settings: Table 4, 2.5 nM PIM1, 20 μM ATP, 40 μM BAD peptide
Method: The activity of PIM1 is measured using a luciferase-luciferin based ATP detection reagent to quantify ATP depletion resulting from kinase-catalyzed phosphoryl transfer to a peptide substrate. Compounds to be tested are dissolved in 100% DMSO and directly distributed into white 384-well plates at 0.5 μl per well. […] After 15 minutes, 10 μl of 40 μM ATP in assay buffer is added. […] The reaction is performed until approximately 50% of the ATP is depleted, then stopped with the addition of 20 μl KinaseGlo Plus (Promega Corporation) solution. The stopped reaction is incubated for 10 minutes and the remaining ATP detected via luminescence on the Victor2 (Perkin Elmer).

Pim2 kinase = Pim2 kinase (Homo sapiens, UniProt Q9P1W9); experiment: KinaseGlo Pim2 ATP depletion assay; format: biochemical; settings: Table 4, 5 nM PIM2, 4 μM ATP, 10 μM BAD peptide
Sequence of Pim2 kinase (Q9P1W9 whole entry): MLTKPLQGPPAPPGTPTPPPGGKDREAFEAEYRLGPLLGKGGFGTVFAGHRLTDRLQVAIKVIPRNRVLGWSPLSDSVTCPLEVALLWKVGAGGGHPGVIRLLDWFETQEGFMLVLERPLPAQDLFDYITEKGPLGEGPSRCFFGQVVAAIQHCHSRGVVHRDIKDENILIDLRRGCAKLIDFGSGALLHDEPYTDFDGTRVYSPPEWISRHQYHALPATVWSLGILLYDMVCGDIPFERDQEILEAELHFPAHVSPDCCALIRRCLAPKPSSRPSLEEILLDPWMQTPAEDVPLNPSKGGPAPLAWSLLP
Method: (§1) The activity of PIM2 is measured using a luciferase-luciferin based ATP detection reagent to quantify ATP depletion resulting from kinase-catalyzed phosphoryl transfer to a peptide substrate. Compounds to be tested are dissolved in 100% DMSO and directly distributed into white 384-well plates at 0.5 μl per well. […] After 15 minutes, 10 μl of 8 μM ATP in assay buffer is added. Final assay concentrations are 5 nM PIM2, 4 μM ATP, 10 μM BAD peptide and 2.5% DMSO. The reaction is performed until approximately 50% of the ATP is depleted, then stopped with the addition of 20 μl KinaseGlo Plus (Promega Corporation) solution. The stopped reaction is incubated for 10 minutes and the remaining ATP detected via luminescence on the Victor2 (Perkin Elmer).

Pim3 kinase = Pim3 kinase (Homo sapiens, UniProt Q86V86); experiment: KinaseGlo Pim3 ATP depletion assay; format: biochemical; settings: Table 4, 40 μM ATP, 100 μM BAD peptide
Method: as §1, with “of PIM3” for “of PIM2”, “of 80” for “of 8”, “nM PIM1, 40” for “nM PIM2, 4”, “ATP, 100” for “ATP, 10”, “stopped by” for “stopped with”

[1] = test system: KMS11 (human myeloma cell line); experiment: Cell proliferation assay (CellTiter-Glo) in KMS11 cells; format: cell-based; settings: KMS-11, 72 h, Table 4, 3 days, read-out: KMS11-luc EC50
In short: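 KMS11 cells at 2000 per well in IMDM/10% FBS were exposed to compound for 3 days. Viability was read by CellTiter-Glo luminescence.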

Sequence of Pim1 kinase (P11309 whole entry): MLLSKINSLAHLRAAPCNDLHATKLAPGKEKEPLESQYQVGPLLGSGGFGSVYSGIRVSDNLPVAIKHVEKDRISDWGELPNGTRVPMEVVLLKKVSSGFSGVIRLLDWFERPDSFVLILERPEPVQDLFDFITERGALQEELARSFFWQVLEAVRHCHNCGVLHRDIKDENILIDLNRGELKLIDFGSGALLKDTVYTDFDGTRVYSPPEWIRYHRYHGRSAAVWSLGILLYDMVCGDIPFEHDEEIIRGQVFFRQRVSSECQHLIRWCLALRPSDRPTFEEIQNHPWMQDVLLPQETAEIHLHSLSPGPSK

IC50 (Pim1 kinase) | IC50 (Pim2 kinase) | IC50 (Pim3 kinase) | EC50 [1] | Compound
0.0446 µM | 0.846 µM | 0.434 µM | ≥ 10 µM | CC[C@]1(O)[C@H](C)C[C@H](c2ccncc2NC(=O)c2ccc(F)c(-c3c(F)cccc3F)n2)C[C@@H]1O [Example 42, 6-(2,6-difluorophenyl)-N-(4-((1S,3S,4S,5R)-4-ethyl-3,4-dihydroxy-5-methylcyclohexyl)pyridin-3-yl)-5-fluoropicolinamide]
0.0004 µM | 0.002 µM | 0.002 µM | 1.54 µM | CC(=O)OC[C@]1(O)[C@H](O)C[C@H](c2ccncc2NC(=O)c2ccc(F)c(-c3c(F)cccc3F)n2)C[C@@H]1C [Example 43, ((1S,2R,4R,6S)-4-(3-(6-(2,6-difluorophenyl)-5-fluoropicolinamido)pyridin-4-yl)-1,2-dihydroxy-6-methylcyclohexyl) methylacetate]
0.0086 µM | 0.0442 µM | 0.0293 µM | ≥ 10 µM | CC(=O)OC[C@]1(O)[C@H](C)C[C@H](c2ccncc2NC(=O)c2ccc(F)c(-c3c(F)cccc3F)n2)C[C@@H]1O [Example 44, ((1R,2S,4S,6R)-4-(3-(6-(2,6-difluorophenyl)-5-fluoropicolinamido)pyridin-4-yl)-1,2-dihydroxy-6-methylcyclohexyl) methylacetate]
0.0014 µM | 0.0109 µM | 0.0035 µM | ≥ 10 µM | C[C@H]1C[C@@H](c2ccncc2NC(=O)c2ccc(F)c(-c3c(F)ccc(C#N)c3F)n2)C[C@@H](O)[C@]1(C)O [Example 46, 6-(3-cyano-2,6-difluorophenyl)-N-(4-((1R,3R,4R,5S)-3,4-dihydroxy-4,5-dimethylcyclohexyl)pyridin-3-yl)-5-fluoropicolinamide]
0.0004 µM | 0.0013 µM | 0.0014 µM | 0.87 µM | C[C@H]1C[C@@H](c2ccncc2NC(=O)c2nc(-c3c(F)cccc3F)c(F)cc2N)C[C@@H](O)[C@]1(C)O [Example 48, 3-amino-6-(2,6-difluorophenyl)-N-(4-((1R,3R,4R,5S)-3,4-dihydroxy-4,5-dimethylcyclohexyl)pyridin-3-yl)-5-fluoropicolinamide]
0.0006 µM | 0.0035 µM | 0.0015 µM | 4.78 µM | COc1cc(F)c(-c2cccc(C(=O)Nc3cnccc3[C@H]3C[C@@H](O)[C@](C)(O)[C@@H](C)C3)n2)c(F)c1 [Example 50, 6-(2,6-difluoro-4-methoxyphenyl)-N-(4-((1R,3R,4R,5S)-3,4-dihydroxy-4,5-dimethylcyclohexyl)pyridin-3-yl) picolinamide]
0.002 µM | 0.0135 µM | 0.0036 µM | 9.74 µM | C[C@H]1C[C@@H](c2ccncc2NC(=O)c2nc(-c3nccs3)ccc2N)C[C@@H](O)[C@]1(C)O [Example 52, 3-amino-N-(4-((1R,3R,4R,5S)-3,4-dihydroxy-4,5-dimethylcyclohexyl)pyridin-3-yl)-6-(thiazol-2-yl) picolinamide]
0.0033 µM | 0.0679 µM | 0.0121 µM | ≥ 10 µM | C[C@H]1C[C@@H](c2ccncc2NC(=O)c2ccc(F)c(-c3ccc(C#N)cc3F)n2)C[C@@H](O)[C@]1(C)O [Example 54, 6-(4-cyano-2-fluorophenyl)-N-(4-((1R,3R,4R,5S)-3,4-dihydroxy-4,5-dimethylcyclohexyl)pyridin-3-yl)-5-fluoropicolinamide]
0.0127 µM | 0.74 µM | 0.22 µM | ≥ 10 µM | C[C@@H]1C[C@H](c2ccncc2NC(=O)c2ccc(F)c(-c3c(F)ccc(N)c3F)n2)C[C@H](O)[C@@]1(C)O [Example 55, 6-(3-amino-2,6-difluorophenyl)-N-(4-((1S,3S,4S,5R)-3,4-dihydroxy-4,5-dimethylcyclohexyl)pyridin-3-yl)-5-fluoropicolinamide]
0.0004 µM | 0.0053 µM | 0.0029 µM | 7.96 µM | C[C@H]1C[C@@H](c2ccncc2NC(=O)c2ccc(F)c(-c3c(F)ccc(N)c3F)n2)C[C@@H](O)[C@]1(C)O [Example 56, 6-(3-amino-2,6-difluorophenyl)-N-(4-((1R,3R,4R,5S)-3,4-dihydroxy-4,5-dimethylcyclohexyl)pyridin-3-yl)-5-fluoropicolinamide]
0.0151 µM | 0.227 µM | 0.102 µM | 6.62 µM | C[C@@H]1C[C@H](c2ccncc2NC(=O)c2cccc(-c3c(F)cccc3F)n2)C[C@H](O)[C@@]1(C)O [Example 57, 6-(2,6-difluorophenyl)-N-(4-((1S,3S,4S,5R)-3,4-dihydroxy-4,5-dimethylcyclohexyl)pyridin-3-yl) picolinamide]
0.0004 µM | 0.0034 µM | 0.0026 µM | 6.06 µM | C[C@H]1C[C@@H](c2ccncc2NC(=O)c2cccc(-c3c(F)cccc3F)n2)C[C@@H](O)[C@]1(C)O [Example 58, 6-(2,6-difluorophenyl)-N-(4-((1R,3R,4R,5S)-3,4-dihydroxy-4,5-dimethylcyclohexyl)pyridin-3-yl) picolinamide]
0.0193 µM | 1.71 µM | 0.329 µM | ≥ 10 µM | C[C@@H]1C[C@H](c2ccncc2NC(=O)c2ccc(F)c(-c3c(F)cccc3F)n2)C[C@H](O)[C@]1(O)CO [Example 60, 6-(2,6-difluorophenyl)-N-(4-((1S,3S,4R,5R)-3,4-dihydroxy-4-(hydroxymethyl)-5-methylcyclohexyl)pyridin-3-yl)-5-fluoropicolinamide]
0.001 µM | 0.0046 µM | 0.0019 µM | 5.75 µM | C[C@H]1C[C@@H](c2ccncc2NC(=O)c2nc(-c3nc(Cl)ccc3F)ccc2N)C[C@@H](O)[C@]1(C)O [Example 136, 5-amino-6′-chloro-N-(4-((1R,3R,4R,5S)-3,4-dihydroxy-4,5-dimethylcyclohexyl)pyridin-3-yl)-3′-fluoro-2,2′-bipyridine-6-carboxamide]
0.0015 µM | 0.0054 µM | 0.0023 µM | 8.58 µM | COC(=O)c1ccc(F)c(-c2ccc(N)c(C(=O)Nc3cnccc3[C@H]3C[C@@H](O)[C@](C)(O)[C@@H](C)C3)n2)n1 [Example 137, methyl 5′-amino-6′-(4-((1R,3R,4R,5S)-3,4-dihydroxy-4,5-dimethylcyclohexyl)pyridin-3-ylcarbamoyl)-3-fluoro-2,2′-bipyridine-6-carboxylate]
0.0017 µM | 0.0129 µM | 0.0026 µM | ≥ 10 µM | Cc1ccc(F)c(-c2ccc(N)c(C(=O)Nc3cnccc3[C@H]3C[C@@H](O)[C@](C)(O)[C@@H](C)C3)n2)n1 [Example 138, 5-amino-N-(4-((1R,3R,4R,5S)-3,4-dihydroxy-4,5-dimethylcyclohexyl)pyridin-3-yl)-3′-fluoro-6′-methyl-2,2′-bipyridine-6-carboxamide]
0.0075 µM | 0.13 µM | 0.0152 µM | ≥ 10 µM | Cc1nn(C)cc1-c1ccc(N)c(C(=O)Nc2cnccc2[C@H]2C[C@@H](O)[C@](C)(O)[C@@H](C)C2)n1 [Example 140, 3-amino-N-(4-((1R,3R,4R,5S)-3,4-dihydroxy-4,5-dimethylcyclohexyl)pyridin-3-yl)-6-(1,3-dimethyl-1H-pyrazol-4-yl)picolinamide]
0.0011 µM | 0.0021 µM | 0.0022 µM | 4.87 µM | C[C@H]1C[C@@H](c2ccncc2NC(=O)c2nc(-c3c(F)cncc3F)ccc2N)C[C@@H](O)[C@]1(C)O [Example 141, 5-amino-N-(4-((1R,3R,4R,5S)-3,4-dihydroxy-4,5-dimethylcyclohexyl)pyridin-3-yl)-3′,5′-difluoro-2,4′-bipyridine-6-carboxamide]
0.152 µM | 0.769 µM | 0.245 µM | ≥ 10 µM | C[C@H]1C[C@@H](c2ccncc2NC(=O)c2nc(-c3ccnnc3)ccc2N)C[C@@H](O)[C@]1(C)O [Example 142, 3-amino-N-(4-((1R,3R,4R,5S)-3,4-dihydroxy-4,5-dimethylcyclohexyl)pyridin-3-yl)-6-(pyridazin-4-yl)picolinamide]
